# Laboratory results taken from ChEMBL document CHEMBL4619759, “A DNA Repair Inhibitor Isolated from an Ecuadorian Fungal Endophyte Exhibits Synthetic Lethality in PTEN-Deficient Glioblastoma” (2020).
# Active and inactive are the calls of the source. The calls are words filed in the database; no cut-off is given here.
# What was measured:
# U-251 [1] = test: Selective cytotoxicity against PTEN-deficient human U251 cells at 12.5 ug/ml after 48 hrs by CellTiter-Glo luminescent cell viability assay; assay type: functional, cell-based
# U-251 [2] = test: Induction of cell cycle arrest in PTEN-deficient human U251 cells assessed as accumulation at G1 phase at 6.25 to 12.5 ug/ml after 4 to 24 hrs by PI staining based flow cytometric analysis; assay type: functional
# U-251 [3] = test: Inhibition of DSB repair in PTEN-deficient human U251 cells at 12.5 ug/ml by neutral comet assay; assay type: functional, cell-based
# U-251 [4] = test: Induction of DNA damage in PTEN-deficient human U251 cells assessed as gammaH2AX accumulation at 6.25 to 12.5 ug/ml after 4 to 24 hrs by PI staining based flow cytometric analysis; assay type: functional, cell-based
# [5] = Inhibition of DSB repair in PTEN-deficient human U2OS EJ-DR cells assessed as reduction in homologous recombination activity at 12.5 ug/ml incubated for 24 hrs in presence of DSB inducer by flow cytometric analysis relative to control; assay type: functional
# [6] = Inhibition of DSB repair in PTEN-deficient human U2OS EJ-DR cells assessed as reduction in mutagenic non-homologous end joining activity at 12.5 ug/ml incubated for 24 hrs in presence of DSB inducer by flow cytometric analysis relative to control; assay type: functional
# U-251 [7] = test: Inhibition of DSB repair in PTEN-deficient 5 Gy IR-induced human U251 cells assessed as increase in comet tail moment at 12.5 ug/ml pretreated followed by irradiation with 5 Gy IR by neutral comet assay; assay type: functional, cell-based
# U-251 [8] = test: Induction of DNA damage in PTEN-deficient human U251 cells assessed as gammaH2AX foci formation at 12.5 ug/ml in presence of 5 Gy IR irradiation measured after 4 to 24 hrs by PI staining based flow cytometric analysis; assay type: functional, cell-based
# U-251 [9] = test: Induction of DNA damage in PTEN-deficient human U251 cells assessed as accumulation of gammaH2AX positive cells at G1 phase at 12.5 ug/ml in presence of 5 Gy IR irradiation measured after 4 to 24 hrs by PI staining based flow cytometric analysis; assay type: functional, cell-based
# U-251 [10] = test: Induction of cell cycle arrest in PTEN-deficient human U251 cells assessed as accumulation at G2/M phase at 6.25 to 12.5 ug/ml incubated for 4 hrs followed by irradiation with 5 Gy IR by PI staining based flow cytometric analysis; assay type: functional
# U-251 [11] = test: Induction of cell cycle arrest in PTEN-proficient human U251 cells assessed as accumulation at G2/M phase at 6.25 to 12.5 ug/ml incubated for 4 hrs followed by irradiation with 5 Gy IR by PI staining based flow cytometric analysis; assay type: functional
# U-251 [12] = test: Radiosensitizer activity in PTEN-deficient human U251 cells assessed as reduction in cell survival at 6.25 to 12.5 ug/ml in presence of 5 Gy IR irradiation by CellTiter-Glo cell viability assay; assay type: functional, cell-based
# U-251 [13] = test: Induction of DNA damage in PTEN-deficient human U251 cells assessed as accumulation of gammaH2AX positive cells at G1 phase at 6.25 to 12.5 ug/ml measured after 4 to 24 hrs by PI staining based flow cytometric analysis; assay type: functional, cell-based
# U-251 [14] = test: Induction of DNA damage in PTEN-deficient human U251 cells assessed as accumulation of gammaH2AX positive cells at S phase at 6.25 to 12.5 ug/ml measured after 4 to 24 hrs by PI staining based flow cytometric analysis; assay type: functional, cell-based
# U-251 [15] = test: Induction of DNA damage in PTEN-deficient human U251 cells assessed as accumulation of gammaH2AX positive cells at G2/M phase at 6.25 to 12.5 ug/ml measured after 4 to 24 hrs by PI staining based flow cytometric analysis; assay type: functional, cell-based
# U-251 [16] = test: Induction of DNA damage in PTEN-proficient human U251 cells assessed as accumulation of gammaH2AX positive cells at G1 phase at 6.25 to 12.5 ug/ml measured after 4 to 24 hrs by PI staining based flow cytometric analysis; assay type: functional, cell-based
# U-251 [17] = test: Induction of DNA damage in PTEN-proficient human U251 cells assessed as accumulation of gammaH2AX positive cells at S phase at 6.25 to 12.5 ug/ml measured after 4 to 24 hrs by PI staining based flow cytometric analysis; assay type: functional, cell-based
# U-251 [18] = test: Induction of DNA damage in PTEN-proficient human U251 cells assessed as accumulation of gammaH2AX positive cells at G2/M phase at 6.25 to 12.5 ug/ml measured after 4 to 24 hrs by PI staining based flow cytometric analysis; assay type: functional, cell-based
smiles,measurement,setting,value
O=C1Nc2ccccc2-c2ccnc3ccc(O)c1c23,Activity,U-251 [1],Active
same,Activity,U-251 [2],Active
same,inhibition,U-251 [3],Active
same,Activity,U-251 [4],Active
same,inhibition at 12.5 µg/mL,[5],46%
same,inhibition at 12.5 µg/mL,[6],48%
same,inhibition,U-251 [7],Active
same,Activity,U-251 [8],Active
same,Activity,U-251 [9],Active
same,Activity,U-251 [10],Active
same,Activity,U-251 [11],Active
same,Activity,U-251 [12],Active
same,Activity,U-251 [13],inactive
same,Activity,U-251 [14],inactive
same,Activity,U-251 [15],inactive
same,Activity,U-251 [16],inactive
same,Activity,U-251 [17],inactive
same,Activity,U-251 [18],inactive
